Laboratory results: US20110082130A1 (LIGAND PHARMACEUTICALS, INC., priority 2006, published 2011)

biological target: T1, chimeric human H3 receptor (Homo sapiens, UniProt Q9Y5N1); test: Chimeric human H3 receptor screening GTP binding assay (inhibition of histamine-stimulated GTP-gamma35S binding, Example 8); assay type: biochemical; details: 4 μM of the compound, 1 μM histamine, "†" in Ki of Table II, read-out: percent inhibition of the signal obtained with 1 μM histamine
T1 construct: made in house; host or cells: Sf9 insect cells (baculovirus); P2 membrane preparation
T1 sequence (Q9Y5N1 with tags, fused parts or gaps): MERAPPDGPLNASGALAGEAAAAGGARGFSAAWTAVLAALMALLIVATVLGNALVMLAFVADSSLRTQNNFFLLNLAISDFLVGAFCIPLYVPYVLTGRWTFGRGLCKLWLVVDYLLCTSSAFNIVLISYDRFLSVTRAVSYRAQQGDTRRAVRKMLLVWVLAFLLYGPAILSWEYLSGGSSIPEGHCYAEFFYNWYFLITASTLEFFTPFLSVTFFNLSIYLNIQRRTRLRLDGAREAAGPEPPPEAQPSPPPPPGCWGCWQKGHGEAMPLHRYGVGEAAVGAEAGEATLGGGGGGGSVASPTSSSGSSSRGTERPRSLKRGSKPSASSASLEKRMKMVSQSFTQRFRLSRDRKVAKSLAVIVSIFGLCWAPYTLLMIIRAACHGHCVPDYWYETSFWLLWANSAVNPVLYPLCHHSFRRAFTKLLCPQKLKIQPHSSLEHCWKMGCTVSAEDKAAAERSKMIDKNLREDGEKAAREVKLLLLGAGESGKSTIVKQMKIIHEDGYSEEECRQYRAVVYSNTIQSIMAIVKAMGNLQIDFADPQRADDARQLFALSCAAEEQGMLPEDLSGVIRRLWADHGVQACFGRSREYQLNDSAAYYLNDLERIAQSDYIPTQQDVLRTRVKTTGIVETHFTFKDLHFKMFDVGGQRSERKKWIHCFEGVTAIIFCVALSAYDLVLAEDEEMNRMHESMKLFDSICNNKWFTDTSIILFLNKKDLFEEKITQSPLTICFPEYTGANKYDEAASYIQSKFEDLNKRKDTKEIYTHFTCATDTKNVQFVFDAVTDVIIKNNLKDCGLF
Method: This Example illustrates a representative screening assay for evaluating inhibition of histamine-stimulated GTP-gamma^35S binding. Such GTP binding activity can be used to identify H3 antagonists and inverse agonists. A compound analyzed in this assay is referred to herein as a “test compound,” and the initial identification of antagonists and inverse agonists is performed using a test compound concentration of 4 μM.
Four independent baculoviral stocks (one directing the expression of the chimeric human H3 receptor and three directing the expression of each of the three subunits of a heterotrimeric G-protein) are used to infect a culture of Sf9 cells as described above. P2 membranes are prepared as described above, and are resuspended by Dounce homogenization (tight pestle) in GTP binding assay buffer (50 mM Tris pH 7.4, 120 mM NaCl, 5 mM MgCl2, 2 mM EGTA, 1 mg/ml BSA, 0.2 mg/ml bacitracin, 0.02 mg/ml aprotinin, 0.01 mg/ml saponin, 10 μM GDP) and added to assay tubes at a concentration of 35 μg protein/reaction tube. Non-radiolabeled test compounds are added to separate reactions at a concentration of 4 μM along with 1 μM histamine (agonist). Reactions are initiated by the addition of […] GTP-gamma^35S with a final assay volume of 0.20 ml.
After a 60-min incubation at room temperature, reactions are terminated by vacuum filtration over GF/C filters (pre-soaked in 50 mM Tris pH 7.4, 120 mM NaCl plus 0.1% BSA) followed by washing with ice-cold buffer (50 mM Tris pH 7.4, 120 mM NaCl). The amount of receptor-bound (and thereby membrane-bound) GTP-gamma^35S is determined by measuring the bound radioactivity, preferably by liquid scintillation spectrometry of the washed filters. Non-specific binding is determined using 10 uM GTP-gammaS and typically represents less than 5 percent of total binding. After subtraction of non-specific binding, data is expressed as percent inhibition of 1 μM histamine signal.
Neutral antagonists are those test compounds that reduce the histamine-stimulated GTP binding activity towards, but not below, baseline levels. In contrast, in the absence of added histamine, inverse agonists reduce the GTP binding activity of the receptor-containing membranes below baseline. Any test compound that elevates GTP binding activity above baseline in the absence of added histamine in this assay is defined as having agonist activity.

Inhibition at 4 µM, ≥ 90%:
Cc1ccc(-c2ccc3c(c2)CCN(CC(=O)N2CCN(C4CCC4)CC2)C3)cc1F [Compound 426, 2-[2-(4-cyclobutylpiperazin-1-yl)-2-oxoethyl]-6-(3-fluoro-4-methylphenyl)-1,2,3,4-tetrahydroisoquinoline]
O=C(CN1CCc2cc(-c3cccc(F)c3)ccc2C1)N1CCN(C2CCCC2)CC1 [Compound 411, 2-[2-(4-cyclopentylpiperazin-1-yl)-2-oxoethyl]-6-(3-fluorophenyl)-1,2,3,4-tetrahydroisoquinoline]
O=C(CN1CCc2cc(-c3ccc(OC(F)(F)F)cc3)ccc2C1)N1CCN(C2CCCC2)CC1 [Compound 479, 2-[2-(4-cyclopentylpiperazin-1-yl)-2-oxoethyl]-6-[4-(trifluoromethoxy)phenyl]-1,2,3,4-tetrahydroisoquinoline]
Cc1cc(C)cc(-c2ccc3c(c2)CCN(CC(=O)N2CCN(C4CCCC4)CC2)C3)c1 [Compound 456, 2-[2-(4-cyclopentylpiperazin-1-yl)-2-oxoethyl]-6-(3,5-dimethylphenyl)-1,2,3,4-tetrahydroisoquinoline]
Cc1ccc(-c2ccc3c(c2)CCN(CC(=O)N2CCN(C4CCC4)CC2)C3)c(F)c1 [Compound 420, 2-[2-(4-cyclobutylpiperazin-1-yl)-2-oxoethyl]-6-(2-fluoro-4-methylphenyl)-1,2,3,4-tetrahydroisoquinoline]
CC(C)N1CCN(C(=O)CN2CCc3cc(-c4cccc(F)c4)ccc3C2)CC1 [Compound 413, 6-(3-fluorophenyl)-2-[2-(4-isopropylpiperazin-1-yl)-2-oxoethyl]-1,2,3,4-tetrahydroisoquinoline]
Cc1cc(-c2ccc3c(c2)CCN(CC(=O)N2CCN(C4CCC4)CC2)C3)ccc1F [Compound 429, 2-[2-(4-cyclobutylpiperazin-1-yl)-2-oxoethyl]-6-(4-fluoro-3-methylphenyl)-1,2,3,4-tetrahydroisoquinoline]
CCCCc1ccc(-c2ccc3c(c2)CCN(CC(=O)N2CCN(C4CCCC4)CC2)C3)cc1 [Compound 452, 6-(4-butylphenyl)-2-[2-(4-cyclopentylpiperazin-1-yl)-2-oxoethyl]-1,2,3,4-tetrahydroisoquinoline]
CCc1ccc(-c2ccc3c(c2)CCN(CC(=O)N2CCN(C(C)C)CC2)C3)cc1 [Compound 462, 6-(4-ethylphenyl)-2-[2-(4-isopropylpiperazin-1-yl)-2-oxoethyl]-1,2,3,4-tetrahydroisoquinoline]
Cc1cccc(-c2ccc3c(c2)CCN(CC(=O)N2CCN(C4CCCC4)CC2)C3)c1 [Compound 433, 2-[2-(4-cyclopentylpiperazin-1-yl)-2-oxoethyl]-6-(3-methylphenyl)-1,2,3,4-tetrahydroisoquinoline]
CCCc1ccc(-c2ccc3c(c2)CCN(CC(=O)N2CCN(C4CCC4)CC2)C3)cc1 [Compound 463, 2-[2-(4-cyclobutylpiperazin-1-yl)-2-oxoethyl]-6-(4-propylphenyl)-1,2,3,4-tetrahydroisoquinoline]
O=C(CN1CCc2cc(-c3ccc4ccccc4c3)ccc2C1)N1CCN(C2CCC2)CC1 [Compound 416, 2-[2-(4-cyclobutylpiperazin-1-yl)-2-oxoethyl]-6-(2-naphthyl)-1,2,3,4-tetrahydroisoquinoline]

same assay, conditions: Table II "Ki", symbol †, 4 μM of the compound, 1 μM histamine, read-out: percent inhibition of the signal obtained with 1 μM histamine

Inhibition at 4 µM, ≥ 90%:
O=C(CN1CCc2cc(-c3ccc(Cl)c(Cl)c3)ccc2C1)N1CCN(C2CCCC2)CC1 [Compound 595, 2-[2-(4-cyclopentylpiperazin-1-yl)-2-oxoethyl]-6-(3,4-dichlorophenyl)-1,2,3,4-tetrahydroisoquinoline]
COC1CCCCC1N1C[C@@H]2C[C@H]1CN2C(=O)CN1CCc2cc(-c3cncnc3)ccc2C1 (stereo in doubt) [Compound 620, 2-{2-[(1S,4S)-5-(2-methoxycyclohexyl)-2,5-diazabicyclo[2.2.1]hept-2-yl]-2-oxoethyl}-6-pyrimidin-5-yl-1,2,3,4-tetrahydroisoquinoline]
COc1ccc(-c2ccc3c(c2)CCN(CC(=O)N2CCN(C(C)C)CC2)C3)cc1 [Compound 523, 2-[2-(4-isopropylpiperazin-1-yl)-2-oxoethyl]-6-(4-methoxyphenyl)-1,2,3,4-tetrahydroisoquinoline]
COc1ccc(-c2ccc3c(c2)CCN(CC(=O)N2CCN(C4CCCCC4)CC2)C3)cc1 [Compound 522]
CCN1CCN(C(=O)CN2CCc3cc(-c4cncnc4)ccc3C2)CC1 [Compound 603, 2-[2-(4-ethylpiperazin-1-yl)-2-oxoethyl]-6-pyrimidin-5-yl-1,2,3,4-tetrahydroisoquinoline]
O=C(CN1CCc2cc(-c3ccc(Oc4ccccc4)cc3)ccc2C1)N1CCN(C2CCC2)CC1 [Compound 486, 2-[2-(4-cyclobutylpiperazin-1-yl)-2-oxoethyl]-6-(4-phenoxyphenyl)-1,2,3,4-tetrahydroisoquinoline]
O=C(CN1CCc2cc(-c3ccccc3Oc3ccccc3)ccc2C1)N1CCN(C2CCCC2)CC1 [Compound 576, 2-[2-(4-cyclopentylpiperazin-1-yl)-2-oxoethyl]-6-(2-phenoxyphenyl)-1,2,3,4-tetrahydroisoquinoline]
CC(C)N1CCN(C(=O)CN2CCc3cc(-c4ccc(N(C)C)cc4)ccc3C2)CC1 [Compound 535, 4-{2-[2-(4-isopropylpiperazin-1-yl)-2-oxoethyl]-1,2,3,4-tetrahydroisoquinolin-6-yl}-N,N-dimethylaniline]
COc1ccc(-c2ccc3c(c2)CCN(CC(=O)N2CCN(C4CCCCC4)CC2)C3)cc1F [Compound 504, 2-[2-(4-cyclohexylpiperazin-1-yl)-2-oxoethyl]-6-(3-fluoro-4-methoxyphenyl)-1,2,3,4-tetrahydroisoquinoline]
O=C(CN1CCc2cc(-c3ccc(F)cc3F)ccc2C1)N1CCN(C2CCCCC2)CC1 [Compound 588, 2-[2-(4-cyclohexylpiperazin-1-yl)-2-oxoethyl]-6-(2,4-difluorophenyl)-1,2,3,4-tetrahydroisoquinoline]
CCCOc1ccc(-c2ccc3c(c2)CCN(CC(=O)N2CCN(C4CCCCC4)CC2)C3)cc1 [Compound 546, 2-[2-(4-cyclohexylpiperazin-1-yl)-2-oxoethyl]-6-(4-propoxyphenyl)-1,2,3,4-tetrahydroisoquinoline]
O=C(CN1CCc2cc(-c3cc(F)ccc3F)ccc2C1)N1CCN(C2CCC2)CC1 [Compound 582, 2-[2-(4-cyclobutylpiperazin-1-yl)-2-oxoethyl]-6-(2,5-difluorophenyl)-1,2,3,4-tetrahydroisoquinoline]
CCOc1cccc(-c2ccc3c(c2)CCN(CC(=O)N2CCN(C(C)C)CC2)C3)c1 [Compound 485, 6-(3-ethoxyphenyl)-2-[2-(4-isopropylpiperazin-1-yl)-2-oxoethyl]-1,2,3,4-tetrahydroisoquinoline]
CC(C)Oc1cccc(-c2ccc3c(c2)CCN(CC(=O)N2CCN(C4CCCC4)CC2)C3)c1 [Compound 514, 2-[2-(4-cyclopentylpiperazin-1-yl)-2-oxoethyl]-6-(3-isopropoxyphenyl)-1,2,3,4-tetrahydroisoquinoline]
COc1ccc(-c2ccc(-c3ccc4c(c3)CCN(CC(=O)N3CCN(C5CCCC5)CC3)C4)cc2)cc1 [Compound 499, 2-[2-(4-cyclopentylpiperazin-1-yl)-2-oxoethyl]-6-(4′-methoxybiphenyl-4-yl)-1,2,3,4-tetrahydroisoquinoline]
C[C@H]1CN(C(=O)CN2CCc3cc(-c4cncnc4)ccc3C2)CCN1C1CCOCC1 [Compound 622, 2-{2-[(3S)-3-methyl-4-(tetrahydro-2H-pyran-4-yl)piperazin-1-yl]-2-oxoethyl}-6-pyrimidin-5-yl-1,2,3,4-tetrahydroisoquinoline]
COC1CCCN(c2ccc3c(n2)CCN(CC(=O)N2CCN(C4CCC4)CC2)C3)C1 (stereo not drawn) [Compound 671, 6-[2-(4-cyclobutylpiperazin-1-yl)-2-oxoethyl]-2-(3-methoxypiperidin-1-yl)-5,6,7,8-tetrahydro-1,6-naphthyridine]
COc1ccccc1-c1ccc2c(c1)CCN(CC(=O)N1CCN(C3CCC3)CC1)C2 [Compound 551, 2-[2-(4-cyclobutylpiperazin-1-yl)-2-oxoethyl]-6-(2-methoxyphenyl)-1,2,3,4-tetrahydroisoquinoline]
